Consider eight compounds from US20250313588A1, “NOVEL PYRROLOPYRIMIDINONE CARBOXAMIDE COMPOUND FOR INHIBITING CDK, STEREOISOMER THEREOF OR PHARMACEUTICALLY ACCEPTABLE SALT THEREOF, AND PHARMACEUTICAL COMPOSITION FOR TREATING CANCER, COMPRISING SAME AS ACTIVE INGREDIENT” (Seoul National University R&DB Foundation, priority 2022, published 2025).

A short description of data set [1]: Plasma metabolic stability assay (mouse plasma).
Protocol: (§3) DMSO was used as a diluent to prepare stock solutions of a test substance and a positive control at a concentration of 10 mM. The positive control stock solution was then diluted with 70% acetonitrile to a working concentration of 0.2 mM, and then the test substance stock solution was diluted with 70% acetonitrile to a working concentration of 1 mM. A quench reagent consisted of acetonitrile containing tolbutamide and propranolol (provided as an internal standard).
(§4) Positive control and test substance working solutions were spiked into plasma at a concentration of 1 μM and 5 μM, respectively. A 0-min sample was prepared by adding an 80 μL aliquot of each incubation mixture to 320 μL of the quench reagent to precipitate proteins. The mixture was incubated in a water bath at 37° C. with gentle shaking. Aliquots of 80 μL of each mixture were removed and placed in a clean 96-well plate containing 320 μL of the quench reagent to precipitate proteins at 15, 30, 45, and 60 min and centrifuged (5000×g, 15 minutes). 100 μL of the supernatant was placed in a 96-well assay plate to which 200 μL of ultrapure water had been added in advance, and analyzed by LC-MS/MS.
The nature of data set [2]: Plasma metabolic stability assay (human plasma). Conditions: for half-life at 5 μM: human, plasma; for plasma stability (in words): summary of Table 1, 'in each group'.
Protocol: as §3, §4
For data set [3], the system named is Hep3B cells, hepatocellular carcinoma cell line. Nature of the data set: Anticancer efficacy in mouse model transplanted with Hep3B cells. It counts as in vivo, nude mice. To be noted: Hep3B xenograft; for changes in cancer growth: 20 mg/kg oral (SNS-032 intraperitoneal), compared to Y102 and SNS-032 groups; for changes in cancer growth / changes in mouse body weight: 27 days; for changes in mouse body weight / weight of the extracted cancer: 20 mg/kg; for weight of the extracted cancer: day 27. The source says:
To evaluate in vivo efficacy using Hep3B cells, another hepatocellular carcinoma cell line, 3×10^6 Hep3B cells were transplanted into the right calves of nude mice to form cancer tissue, and then the anticancer efficacy of the new compositions Y106 and Y108 was compared with that of an existing CDK inhibitor Y102 or SNS-032.
The dosage, administration schedule, and administration route were applied in the same manner as in the method performed in the mouse model transplanted with Huh-7 cells in Example 3. After administration of the new compositions and the existing CDK inhibitors, changes in cancer growth and mouse body weight were measured for 27 days, and then on day 27, the cancer tissues were removed to confirm the size and weight thereof.

Data set [4] relates to A549 cells, non-small cell lung cancer cell line. Briefly: Anticancer efficacy in mouse model transplanted with A549 cells. The class given is in vivo, nude mice. To be noted: A549 xenograft; for changes in cancer growth: 20 mg/kg oral (SNS-032 intraperitoneal), administered for five days, compared to Y102 and SNS-032 groups; for changes in cancer growth / changes in mouse body weight: 25 days; for changes in mouse body weight / weight of the extracted cancer: 20 mg/kg; for weight of the extracted cancer: day 25. Here is the method:
To evaluate in vivo efficacy in a mouse model transplanted with A549 cells, a non-small cell lung cancer cell line, 1×10^6 A549 cells were transplanted into the right calves of nude mice to form cancer tissue, and then the anticancer efficacy of the new compositions Y106 and Y108 was compared with that of an existing CDK inhibitor Y102 or SNS-032.
The dose was the same for all mice (20 mg/kg), the vehicle, Y102, Y106, and Y108 were administered orally, and only SNS-032 was administered intraperitoneally. These were administered for five days, the size was measured twice a week using calipers to measure the changes in cancer growth and the mouse body weight for 25 days, and on day 25, the cancer tissue was removed to confirm the size and weight thereof.

The subject of data set [5] is Huh-7 cells, hepatocellular carcinoma cell line. Nature of the data set: Anticancer efficacy in mouse model transplanted with Huh-7 cells. It counts as in vivo, nude mice. To be noted: Huh-7 xenograft; for changes in cancer growth: 20 mg/kg oral (SNS-032 intraperitoneal), five times a week for two weeks, compared to Y102 and SNS-032 groups; for weight of the extracted cancer: day 14. Here is the method:
To evaluate in vivo efficacy, 1×10^7 Huh-7 cells were transplanted into the right calves of nude mice to form cancer tissue, and then the anticancer efficacy of the new compositions Y106 and Y108 was compared with that of an existing CDK inhibitor Y102 or SNS-032.
The dose was the same for all mice (20 mg/kg), the vehicle, Y102, Y106, and Y108 were administered orally, and only SNS-032 was administered intraperitoneally. These were administered five times a week for two weeks, the size was measured twice a week using calipers to measure the changes in cancer growth and the mouse body weight for 14 days, and on day 14, the cancer tissue was removed to confirm the size and weight thereof.

Another data set concerns Huh-7 cells. Nature of the data set: Cell colony forming assay, Huh-7. It counts as cell-based. To be noted: Huh-7, 1 μM and 3 μM for 12 hours, 7 to 14 days; compared to Y102 or SNS-032. Here is the method:
(§1) To examine the anticancer efficacy of Y106 and Y108 in vitro, a cell colony formation assay was performed in hepatocellular carcinoma cell lines Huh-7 and Hep3B cells.
(§2) 500 cells were seeded into 6-well plates, and then treated with Y102, Y106,Y108, or SNS-032 at 1 μM and 3 μM for 12 hours, the medium was then replaced with fresh medium, and after 7 to 14 days, the cells were stained with 20% methanol+0.5% Crystal Violet for colony staining, and the number of cells was counted for quantitative analysis.

For another data set, the system named is Hep3B cells. Briefly: Cell colony forming assay, Hep3B. The class given is cell-based. Conditions: 1 μM and 3 μM for 12 hours, 7 to 14 days, compared to Y102 or SNS-032. Here is the method:
as §1, §2

For data set [6] the following is noted: plasma.
Protocol: as §3, §4
For data set [7] the following is noted: plasma. The source holds these as a separate data set.
Protocol: as §3, §4

By half-life is commonly meant how long it takes for the measured level to halve. `CC(C)C(=O)OC[C@@H]1O[C@H](n2cnc(N)c3c(C(N)=O)c(Br)nc2-3)[C@@H](O)[C@@H]1OC(=O)C(C)C` [Compound Y105, (2S,3S,4S,5S)-5-(4-amino-6-bromo-5-carbamoyl-1H-pyrrolo[2,3-d]pyrimidin-1-yl)-4-hydroxy-2-((isobutyryloxy)methyl)tetrahydrofuran-3-yl isobutyrate]: the half-life at 5 μM was found to be 2.67 ± 0.2 min in [1] and 20.5 ± 0.34 min in data set [2].
For the compound `CCC(C)(C)C(=O)OC[C@@H]1O[C@H](n2cnc(N)c3c(C(N)=O)c(Br)nc2-3)[C@@H](O)[C@@H]1OC(=O)C(C)(C)CC` [Compound Y106, (2S,3S,4S,5S)-5-(4-amino-6-bromo-5-carbamoyl-1H-pyrrolo[2,3-d]pyrimidin-1-yl)-2-(((2,2-dimethylbutanoyl)oxy)methyl)-4-hydroxytetrahydrofuran-3-yl 2,2-dimethylbutanoate], the “changes in cancer growth” value in [3] is “inhibited cancer growth more effectively”; in data set [4], “inhibited cancer growth more clearly”; in data set [5] (14 days), “significantly inhibited cancer growth”. The “changes in mouse body weight” value in data set [3] and in data set [4] was “no significant difference” throughout. Further, the “weight of the extracted cancer” value in [3], in data set [4] and in data set [5] (20 mg/kg) was “least amount of cancer tissue” throughout. In addition, the half-life at 5 μM was 7.1 ± 0.07 min in [1] and more than 720 min in [2]. For the same compound, the “plasma stability (in words)” value in [2] is listed as “highest stability”. The colony formation entry with Huh-7 cells and in the data set with Hep3B cells was “remarkably reduced” throughout.
In the case of `CCC(C)(C)C(=O)OC[C@@H]1O[C@H](n2cnc(N)c3c(C(N)=O)c(Br)nc2-3)[C@@H](O)[C@@H]1O` [Compound Y107, ((2S,3S,4S,5S)-5-(4-amino-6-bromo-5-carbamoyl-1H-pyrrolo[2,3-d]pyrimidin-1-yl)-3,4-dihydroxytetrahydrofuran-2-yl)methyl 2,2-dimethylbutanoate], the half-life at 5 μM in data set [1] amounted to 6.91 ± 0.11 min; in data set [2], 26.6 ± 4.33 min.
As for `CC(C)(C)C(=O)OC[C@@H]1O[C@H](n2cnc(N)c3c(C(N)=O)c(Br)nc2-3)[C@@H](O)[C@@H]1OC(=O)C(C)(C)C` [Compound Y108, (2S,3S,4S,5S)-5-(4-amino-6-bromo-5-carbamoyl-1H-pyrrolo[2,3-d]pyrimidin-1-yl)-4-hydroxy-2-((pivaloyloxy)methyl)tetrahydrofuran-3-yl pivalate], the entries for the “changes in cancer growth” value in [3], in [4] and in data set [5] (14 days) were “inhibited cancer growth more effectively”, “inhibited cancer growth more clearly” and “significantly inhibited cancer growth”, respectively. For the same compound, the “changes in mouse body weight” value in data set [3] and in data set [4] was “no significant difference” throughout. The “weight of the extracted cancer” value in [3], in data set [4] and in data set [5] (20 mg/kg) was “least amount of cancer tissue” throughout. Moreover, the figures for the half-life at 5 μM in [1] and in [2] were 7.25 ± 0.01 min and 700 ± 42.5 min, respectively. Besides, in data set [2], the “plasma stability (in words)” value is “highest stability”. The colony formation entry in the data set on Huh-7 cells and in the data set with Hep3B cells was “remarkably reduced” each time.
Consider `NC(=O)c1c(Br)nc2n([C@H]3O[C@@H](COC(=O)C45CC6CC(CC(C6)C4)C5)C(O)[C@H]3O)cnc(N)c1-2` (stereo partly drawn) [Compound Y109, ((2S,3S,4S,5S)-5-(4-amino-6-bromo-5-carbamoyl-1H-pyrrolo[2,3-d]pyrimidin-1-yl)-3,4-dihydroxytetrahydrofuran-2-yl)methyl(3S,5S,7S)-adamantane-1-carboxylate], for which the values for the half-life at 5 μM in [1] and in [2] were 7.77 ± 0.13 min and 280 ± 3.06 min, respectively.
Taken in the same sequence, the figures for `CC1CC(OC(=O)C(O)c2ccccc2)CC(C)(C)N1C` (stereo not drawn) [Eucatropin, reference compound] were 32.6 ± 4.81 min and 16.7 ± 0.38 min.
`CC(C)(C)c1cnc(CSc2cnc(NC(=O)C3CCNCC3)s2)o1` [SNS-032, reference compound]: the “changes in mouse body weight” value in data set [3] and in [4] was “no significant difference” throughout. In addition, the mouse body weight entry in data set [5] (20 mg/kg, 14 days) was “slightly reduced”.
For Ibulocydine, in data set [6], the “T1/2(min) Human” value is 4.57 ± 0.09 min. The “T1/2(min) Mouse” value in data set [7] stood at 2.85 ± 0.02 min.
